From ChEMBL document CHEMBL5303304, “EUbOPEN Chemogenomics Library - IncuCyte” (2023)

What was measured:
Assay type in all cases: toxicity, cell-based
HEK-293T = assay: Incucyte cell viability with HEK293T; settings: human, 10 µM, compound concentration 10 uM
Fibroblast = assay: Incucyte cell viability with human fibroblast; settings: 10 µM, compound concentration 10 uM
U2OS = assay: Incucyte cell viability with U2OS; settings: human, 10 µM, compound concentration 10 uM
Also: unitless GR value; below 1 slowed growth and below 0 cell loss.

Row | SMILES | Growth Rate (HEK-293T; 0 h, replicate number 2) | Growth Rate (HEK-293T; 6 h, replicate number 1) | Growth Rate (Fibroblast; 0 h, replicate number 1) | Growth Rate (Fibroblast; 0 h, replicate number 2) | Growth Rate (Fibroblast; 6 h, replicate number 1) | Growth Rate (Fibroblast; 6 h, replicate number 2) | Growth Rate (Fibroblast; 12 h, replicate number 2) | Growth Rate (Fibroblast; 18 h, replicate number 2) | Growth Rate (Fibroblast; 24 h, replicate number 2) | Growth Rate (U2OS; 6 h, replicate number 1) | Growth Rate (U2OS; 12 h, replicate number 2) | Growth Rate (U2OS; 18 h, replicate number 2) | Growth Rate (U2OS; 24 h, replicate number 2) | Growth Rate (U2OS; 18 h, replicate number 1) | Growth Rate (HEK-293T; 6 h, replicate number 2) | Growth Rate (HEK-293T; 12 h, replicate number 2) | Growth Rate (HEK-293T; 18 h, replicate number 1) | Growth Rate (HEK-293T; 18 h, replicate number 2) | Growth Rate (HEK-293T; 24 h, replicate number 1) | Growth Rate (HEK-293T; 24 h, replicate number 2) | also measured
1 | Br.CO[C@H]1CC=C2CCN3CCC4=C(CC(=O)OC4)[C@]23C1 | 0.77 | 0.59 | 0.93 | 0.3 | -1 | 0.8 | 0.64 | 0.7 | 0.72 | 0.39 | 0.77 | 0.87 | 1 | – | – | – | – | – | – | – | Growth Rate (U2OS; 6 h, replicate number 2): 0.78
2 | CC1(C)CC(=O)c2c(SCCO)sc(-c3nccs3)c2C1 | 0.82 | – | – | -0.3 | -1 | – | – | – | – | 0.66 | – | – | 0.97 | 0.97 | – | – | – | – | – | – | Growth Rate (U2OS; 12 h, replicate number 1): 0.87
3 | S=c1[nH]nc(-c2cccs2)n1-c1ccccc1 | 0.81 | 0.53 | 0.04 | -0.79 | – | -0.3 | – | – | – | – | 0.8 | 0.87 | – | 0.95 | 0.97 | 0.73 | 0.91 | 0.87 | 0.9 | 0.83 | Growth Rate (HEK-293T; 12 h, replicate number 1): 0.58; Growth Rate (Fibroblast; 12 h, replicate number 1): -0.72; Growth Rate (Fibroblast; 18 h, replicate number 1): -0.25; Growth Rate (Fibroblast; 24 h, replicate number 1): 0.01; Growth Rate (U2OS; 0 h, replicate number 1): 0.53; Growth Rate (U2OS; 6 h, replicate number 2): 0.93
4 | Cn1ncnc1COc1nn2c(-c3cc(F)ccc3F)nnc2cc1C(C)(C)C | 0.38 | – | 0.93 | – | – | – | 0.29 | 0.56 | 0.57 | 0.51 | 0.78 | 0.76 | 0.76 | – | 0.37 | 0.63 | 0.42 | 0.77 | 0.28 | 0.88 | Growth Rate (HEK-293T; 12 h, replicate number 1): 0.42
5 | CC[C@@]1(c2ccccc2)NC(=O)N(Cc2ccccc2)C1=O | 0.93 | – | 0.94 | 0.5 | -0.93 | – | 0.07 | 0.7 | 0.58 | 0.55 | – | – | 0.99 | – | – | 0.77 | 0.95 | 0.86 | 0.84 | 0.82 | Growth Rate (U2OS; 0 h, replicate number 2): -0.81
6 | C=CC(=O)Nc1cccc(C(=O)Nc2ccc(NC(=O)c3cccc(-c4ccn[nH]4)n3)cc2)c1 | 0.5 | 0.54 | 0 | – | -0.7 | – | – | – | – | – | – | – | 0.92 | – | 0.82 | 0.37 | 0.81 | 0.59 | – | 0.55 | Growth Rate (U2OS; 0 h, replicate number 1): -0.99; Growth Rate (U2OS; 0 h, replicate number 2): -0.56
7 | COc1cc(C(C)C)c(Oc2cnc(NC(CO)CO)nc2N)cc1I | 0.85 | – | – | 0.81 | -0.93 | 0.67 | 0.88 | 0.94 | – | 0.05 | 1 | – | – | 0.97 | 0.97 | 0.76 | – | 0.82 | – | 0.89 | Growth Rate (Fibroblast; 24 h, replicate number 1): 1; Growth Rate (U2OS; 0 h, replicate number 2): -0.32; Growth Rate (U2OS; 12 h, replicate number 1): 0.93; Growth Rate (U2OS; 24 h, replicate number 1): 0.83
